In PubChem BioAssay AID2060512 (Molecular Pharmacology Branch, DTP, NCI, 2025):

System: 186277-243-T-J2-PDC complex spheroid viability
Assay: Anticancer human tumor 186277-243-T-J2-PDC patient-derived colon adenocarcinoma cell line growth inhibition [GQUAD]
Details: for IC50: curve of first compound; for viability, T/C: stronger effect = lower value
Summary of the method: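 Multi-cell-type spheroids of tumor cells with HUVEC and mesenchymal stem cells, treated with drug combinations. Concentrations descend in half-log steps from near clinical Cmax, or from 10 microM where Cmax is unknown; viability read-out.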

[1] = second compound 0.0316 µM, first compound 0.0316 µM
[2] = second compound 0.0316 µM, first compound 0.316 µM
[3] = second compound 0.1 µM, first compound 0.0316 µM
[4] = second compound 0.1 µM, first compound 0.316 µM
[5] = second compound 0.316 µM, first compound 0.0316 µM
[6] = second compound 0.316 µM, first compound 0.316 µM
[7] = second compound 1 µM, first compound 0.0316 µM
[8] = second compound 1 µM, first compound 0.316 µM
[9] = second compound 3.16 µM, first compound 0.0316 µM
[10] = second compound 3.16 µM, first compound 0.316 µM
[11] = second compound 10 µM, first compound 0.0316 µM
[12] = second compound 10 µM, first compound 0.316 µM
[13] = second compound 0.0316 µM, first compound 0.1 µM
[14] = second compound 0.0316 µM, first compound 1 µM
[15] = second compound 0.0316 µM, first compound 3.16 µM
[16] = second compound 0.0316 µM, first compound 10 µM
[17] = second compound 0.1 µM, first compound 0.1 µM
[18] = second compound 0.1 µM, first compound 1 µM
[19] = second compound 0.1 µM, first compound 3.16 µM
[20] = second compound 0.1 µM, first compound 10 µM
[21] = second compound 0.316 µM, first compound 0.1 µM
[22] = second compound 0.316 µM, first compound 1 µM
[23] = second compound 0.316 µM, first compound 3.16 µM
[24] = second compound 0.316 µM, first compound 10 µM
[25] = second compound 1 µM, first compound 0.1 µM
[26] = second compound 1 µM, first compound 1 µM
[27] = second compound 1 µM, first compound 3.16 µM
[28] = second compound 1 µM, first compound 10 µM
[29] = second compound 3.16 µM, first compound 0.1 µM
[30] = second compound 3.16 µM, first compound 1 µM
[31] = second compound 3.16 µM, first compound 3.16 µM
[32] = second compound 3.16 µM, first compound 10 µM
[33] = second compound 10 µM, first compound 0.1 µM
[34] = second compound 10 µM, first compound 1 µM
[35] = second compound 10 µM, first compound 3.16 µM
[36] = second compound 10 µM, first compound 10 µM
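Further: spheroids exposed to drugs for 7 days.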
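Wherever viability, T/C is given: 100% = DMSO vehicle control viability.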

## Cn1ncnc1[C@H]1c2n[nH]c(=O)c3cc(F)cc(c23)N[C@@H]1c1ccc(F)cc1 + Cc1cnc(CNC(=O)c2c(=O)c3ccc(N4CCCN(C)CC4)nc3n3c2sc2ccccc23)cn1
Second compound 0.0316 µM
  IC50: > 0.316 µM
Second compound 0.1 µM
  IC50: > 0.316 µM
Second compound 0.316 µM
  IC50: > 0.316 µM
Second compound 1 µM
  IC50: > 0.316 µM
Second compound 3.16 µM
  IC50: > 0.316 µM
Second compound 10 µM
  IC50: < 0.000999 µM
Second compound 0.0316 µM, first compound 0.000999 µM
  viability, T/C: 107%
Second compound 0.0316 µM, first compound 0.00316 µM
  viability, T/C: 101%
Second compound 0.0316 µM, first compound 0.00999 µM
  viability, T/C: 108%
[1]
  viability, T/C: 78.6%
Second compound 0.0316 µM, first compound 0.0999 µM
  viability, T/C: 85.2%
[2]
  viability, T/C: 78.2%
Second compound 0.1 µM, first compound 0.000999 µM
  viability, T/C: 102%
Second compound 0.1 µM, first compound 0.00316 µM
  viability, T/C: 103%
Second compound 0.1 µM, first compound 0.00999 µM
  viability, T/C: 84.3%
[3]
  viability, T/C: 94.8%
Second compound 0.1 µM, first compound 0.0999 µM
  viability, T/C: 85.5%
[4]
  viability, T/C: 71.6%
Second compound 0.316 µM, first compound 0.000999 µM
  viability, T/C: 75.7%
Second compound 0.316 µM, first compound 0.00316 µM
  viability, T/C: 79.2%
Second compound 0.316 µM, first compound 0.00999 µM
  viability, T/C: 80.1%
[5]
  viability, T/C: 77%
Second compound 0.316 µM, first compound 0.0999 µM
  viability, T/C: 73.1%
[6]
  viability, T/C: 70.3%
Second compound 1 µM, first compound 0.000999 µM
  viability, T/C: 65.6%
Second compound 1 µM, first compound 0.00316 µM
  viability, T/C: 57.3%
Second compound 1 µM, first compound 0.00999 µM
  viability, T/C: 59.2%
[7]
  viability, T/C: 59.4%
Second compound 1 µM, first compound 0.0999 µM
  viability, T/C: 62.5%
[8]
  viability, T/C: 52.8%
Second compound 3.16 µM, first compound 0.000999 µM
  viability, T/C: 48.1%
Second compound 3.16 µM, first compound 0.00316 µM
  viability, T/C: 55.6%
Second compound 3.16 µM, first compound 0.00999 µM
  viability, T/C: 52.5%
[9]
  viability, T/C: 51.4%
Second compound 3.16 µM, first compound 0.0999 µM
  viability, T/C: 54%
[10]
  viability, T/C: 48.7%
Second compound 10 µM, first compound 0.000999 µM
  viability, T/C: 46%
Second compound 10 µM, first compound 0.00316 µM
  viability, T/C: 42.1%
Second compound 10 µM, first compound 0.00999 µM
  viability, T/C: 43.4%
[11]
  viability, T/C: 46.9%
Second compound 10 µM, first compound 0.0999 µM
  viability, T/C: 55.7%
[12]
  viability, T/C: 42.5%

## CCCS(=O)(=O)Nc1ccc(F)c(C(=O)c2c[nH]c3ncc(-c4ccc(Cl)cc4)cc23)c1F + Cc1[nH]c2ccc(F)cc2c1-c1nc2c3cccnc3c3ncccc3c2[nH]1
Second compound 0.0316 µM
  IC50: 6.01 µM
Second compound 0.1 µM
  IC50: 6.44 µM
Second compound 0.316 µM
  IC50: 5.92 µM
Second compound 1 µM
  IC50: 6.94 µM
Second compound 3.16 µM
  IC50: 5.65 µM
Second compound 10 µM
  IC50: 5.28 µM
[1]
  viability, T/C: 109%
[13]
  viability, T/C: 105%
[2]
  viability, T/C: 99%
[14]
  viability, T/C: 91%
[15]
  viability, T/C: 86%
[16]
  viability, T/C: 24.1%
[3]
  viability, T/C: 111%
[17]
  viability, T/C: 107%
[4]
  viability, T/C: 101%
[18]
  viability, T/C: 103%
[19]
  viability, T/C: 98.5%
[20]
  viability, T/C: 20%
[5]
  viability, T/C: 111%
[21]
  viability, T/C: 107%
[6]
  viability, T/C: 104%
[22]
  viability, T/C: 119%
[23]
  viability, T/C: 82.7%
[24]
  viability, T/C: 22.7%
[7]
  viability, T/C: 89.6%
[25]
  viability, T/C: 107%
[8]
  viability, T/C: 108%
[26]
  viability, T/C: 115%
[27]
  viability, T/C: 103%
[28]
  viability, T/C: 25.3%
[9]
  viability, T/C: 110%
[29]
  viability, T/C: 113%
[10]
  viability, T/C: 97.9%
[30]
  viability, T/C: 95%
[31]
  viability, T/C: 89.8%
[32]
  viability, T/C: 13.7%
[11]
  viability, T/C: 90.2%
[33]
  viability, T/C: 95.9%
[12]
  viability, T/C: 103%
[34]
  viability, T/C: 98.4%
[35]
  viability, T/C: 82%
[36]
  viability, T/C: 9.98%

## C=CC(=O)N1CCN(c2nc(=O)n(-c3c(C)ccnc3C(C)C)c3nc(-c4c(O)cccc4F)c(F)cc23)C(C)C1 (stereo unspecified) + CN(C)c1ccc(Nc2c3ccc(NC(=O)CCN4CCCC4)cc3nc3cc(NC(=O)CCN4CCCC4)ccc23)cc1
Second compound 0.0316 µM
  IC50: > 10 µM
Second compound 0.1 µM
  IC50: > 10 µM
Second compound 0.316 µM
  IC50: > 10 µM
Second compound 1 µM
  IC50: > 10 µM
Second compound 3.16 µM
  IC50: > 10 µM
Second compound 10 µM
  IC50: > 10 µM
[1]
  viability, T/C: 105%
[13]
  viability, T/C: 85.5%
[2]
  viability, T/C: 90.1%
[14]
  viability, T/C: 81.7%
[15]
  viability, T/C: 104%
[16]
  viability, T/C: 96.6%
[3]
  viability, T/C: 111%
[17]
  viability, T/C: 96.1%
[4]
  viability, T/C: 101%
[18]
  viability, T/C: 71.9%
[19]
  viability, T/C: 111%
[20]
  viability, T/C: 88.3%
[5]
  viability, T/C: 104%
[21]
  viability, T/C: 94.6%
[6]
  viability, T/C: 87.3%
[22]
  viability, T/C: 90.5%
[23]
  viability, T/C: 92.6%
[24]
  viability, T/C: 95.2%
[7]
  viability, T/C: 93.9%
[25]
  viability, T/C: 89.8%
[8]
  viability, T/C: 88.4%
[26]
  viability, T/C: 101%
[27]
  viability, T/C: 105%
[28]
  viability, T/C: 97.3%
[9]
  viability, T/C: 95.3%
[29]
  viability, T/C: 87.2%
[10]
  viability, T/C: 97.6%
[30]
  viability, T/C: 89.8%
[31]
  viability, T/C: 101%
[32]
  viability, T/C: 95.3%
[11]
  viability, T/C: 91.7%
[33]
  viability, T/C: 80.2%
[12]
  viability, T/C: 98.4%
[34]
  viability, T/C: 96%
[35]
  viability, T/C: 111%
[36]
  viability, T/C: 88.1%
